Test results taken from patent US20160243223A1, “METHODS FOR TREATING CANCERS COMPRISING K-RAS MUTATIONS” (OncoMed Pharmaceuticals, Inc., priority 2009, published 2016).

B1: 21M18 H7L2: humanized form of the murine 21M18 antibody; anti-human DLL4 antibody (antibody, V domains shown)
VH: QVQLVQSGAEVKKPGASVKISCKASGYSFTAYYIHWVKQAPGQGLEWIGYISSYNGATNYNQKFKGRVTFTTDTSTSTAYMELRSLRSDDTAVYYCARDYDYDVGMDYWGQGTLVTVSS
VL: DIVMTQSPDSLAVSLGERATISCRASESVDNYGISFMKWFQQKPGQPPKLLIYAASNQGSGVPDRFSGSGSGTDFTLTISSLQAEDVAVYYCQQSKEVPWTFGGGTKVEIK

Key:
C9 colon tumor = C9 colon tumor recurrence xenograft model; type: in vivo, NOD/SCID mice; conditions: treatment from 2 days after injection; antibody 10 mg/kg twice a week, irinotecan […] once a week, intraperitoneally; FIG. 4
Method: Starting 2 days after injection, mice were treated with irinotecan alone (Δ) or anti-human DLL4 antibody (21M18 […]) plus irinotecan (▾). Treatment in both groups was discontinued on the indicated day and tumor growth was monitored for an additional period of time. […] Both antibodies and chemotherapeutic agents were administered intraperitoneally. Tumor growth was measured with electronic calipers at the indicated time points.

PN8 pancreatic tumor = PN8 pancreatic tumor recurrence xenograft model after gemcitabine; type: in vivo, NOD/SCID mice; conditions: after gemcitabine 100 mg/kg once a week for 4 weeks; antibodies 10 mg/kg once a week from day 53; vs control antibody; FIG. 5
Method: The PN8 pancreatic tumor was determined to have a K-ras mutation, a glycine to aspartic acid mutation at codon 12, that is a known activating mutation. Anti-DLL4 antibodies were tested for efficacy in this xenograft tumor model. Dissociated PN8 pancreatic tumor cells (10,000 cells) were injected subcutaneously into the flanks of 6-8 week old NOD/SCID mice. Tumors were allowed to grow for 28 days until they reached an average volume of 173 mm^3. […] On day 53, the gemcitabine treatments were stopped and antibody treatments initiated. Mice were treated with control antibody ([…]), anti-mouse DLL4 antibody (21R30) (▾), anti-human DLL4 antibody (21M18 H7L2) (▴), or a combination of anti-mouse DLL4 antibody and anti-human DLL4 antibody (21R30+21M18 H7L2) (□). […] Both antibodies and chemotherapeutic agents were administered intraperitoneally. Tumor growth was measured with electronic calipers at the indicated time points.

Row | Molecule | tumor growth after cessation of treatment (C9 colon tumor) | tumor recurrence after chemotherapy (PN8 pancreatic tumor)
1 | CCc1c2c(nc3ccc(OC(=O)N4CCC(N5CCCCC5)CC4)cc13)-c1cc3c(c(=O)n1C2)COC(=O)[C@]3(O)CC [Irinotecan, irinotecan] | tumor growth progressed | –
2 | B1 | – | more substantial effect in inhibiting and/or delaying tumor re-growth
